Test results reported in patent publication US20240400560A1, “BICYCLIC HETEROCYCLIC DERIVATIVE HAVING VIRAL GROWTH INHIBITORY ACTIVITY AND PHARMACEUTICAL COMPOSITION CONTAINING SAME” (Shionogi & Co., Ltd., priority 2021, published 2024).
Where two headings read alike, the source gives them in different places.

Key:
[1] = test system: SARS-CoV-2; assay: Inhibitory activity of cytopathic effect (CPE) in Vero E6/TMPRSS2 cells; type: cell-based
[2] = target: SARS-CoV-2 3CL protease (Severe acute respiratory syndrome coronavirus 2, UniProt P0DTD1); assay: Inhibitory activity test against SARS-CoV-2 3CL proteases; type: biochemical
[3] = test system: SARS-CoV-2; assay: Inhibitory activity of cytopathic effect (CPE) in HEK293T/ACE2-TMPRSS2 cells; type: cell-based; conditions: Severe acute respiratory syndrome coronavirus 2, HEK-293T, 72 h
[4] = Severe acute respiratory syndrome coronavirus 2, VeroE6/TMPRSS2, 72 h, 50% SARS-CoV-2 infected cell death inhibitory concentration, CellTiter-Glo 2.0 after 3 days culture
[5] = read-out: IC50 (50% SARS-CoV-2 3CL protease inhibitory concentration)
[6] = Severe acute respiratory syndrome coronavirus 2, VeroE6/TMPRSS2, 50% SARS-CoV-2 infected cell death inhibitory concentration, class symbols
[7] = HEK293T/ACE2-TMPRSS2 cells, cultured 3 days, CellTiter-Glo 2.0 luminescence, read-out: EC50 (50% SARS-CoV-2 infected cell death inhibitory concentration)
[8] = 50% SARS-CoV-2 infected cell death inhibitory concentration, HEK293T/ACE2-TMPRSS2 cells, CellTiter-Glo 2.0 after 3 days culture, read-out: EC50

| Compound | IC50 [2, 5] | EC50 [3, 7] | further results |
| --- | --- | --- | --- |
| COc1cc(-c2cc3c(cc2Cl)NC(=O)C3)cc2c1c(=O)n(-c1cncc(C)c1)c(=O)n2Cc1cc(F)c(F)c(F)c1 [Compound I-0058] | 1.5 nM | – | EC50 [1, 4]: 194 nM |
| COc1cc(-c2cc(CO)ccc2Cl)cc2c1c(=O)n(-c1cncc(C)c1)c(=O)n2Cc1ccc(F)c(C#N)c1 [Compound I-0031] | < 100 nM | – | EC50 [1, 6]: < 1000 nM |
| COc1cc(-c2cc(-c3cnn(C)c3)ccc2Cl)cc2c1c(=O)n(-c1cncc(C)c1)c(=O)n2Cc1ccc(F)c(C#N)c1 [Compound I-0074] | 12 nM | – | EC50 [1, 4]: 1830 nM |
| Cc1cncc(-n2c(=O)c3c(Cl)cc(-c4cc5c(cc4Cl)NC(=O)C5)cc3n(Cc3ccc(F)c(C#N)c3)c2=O)c1 [Compound I-0004] | 9.9 nM | – | EC50 [1, 4]: 1160 nM |
| COc1cc(-c2cc3c(cc2Cl)NC(=O)C3)cc2c1c(=O)n(Cc1ncn(C)n1)c(=O)n2Cc1cc(F)c(F)c(Cl)c1 [Compound I-0263] | 0.99 nM | – | EC50 [1, 4]: 736 nM |
| COc1cc(-c2cc3cn[nH]c3cc2Cl)cc2c1c(=O)n(Cc1ncn(C)n1)c(=O)n2Cc1cc(F)c(F)c(F)c1F [Compound I-0048] | 11 nM | – | EC50 [1, 4]: 537 nM |
| COc1cc(-c2cc(C#N)ccc2Cl)cc2c1c(=O)n(-c1cncc(Cl)c1)c(=O)n2Cc1ccc(F)c(C#N)c1 [Compound I-0033] | 13 nM | – | EC50 [1, 4]: 217 nM |
| Cc1cncc(-n2c(=O)c3c(Cl)cc(-c4cc(C#N)ccc4Cl)cc3n(Cc3ccc(F)c(C#N)c3)c2=O)c1 [Compound I-0013] | < 100 nM | – | EC50 [1, 6]: < 1000 nM |
| COCc1ccc(Cl)c(-c2cc(OC)c3c(=O)n(-c4cncc(C)c4)c(=O)n(Cc4ccc(F)c(C#N)c4)c3c2)c1 [Compound I-0076] | 20 nM | – | EC50 [1, 4]: 489 nM |
| COc1cc(-c2cc(CO)ccc2Cl)cc2c1c(=O)n(Cc1ncn(C)n1)c(=O)n2Cc1cc(F)c(F)c(F)c1 [Compound I-0036] | < 100 nM | – | EC50 [1, 6]: 1000 to 10000 nM |
| COc1cc(-c2cc(C#N)ccc2Cl)cc2c1c(=O)n(-c1cncc(C)c1)c(=O)n2Cc1ccc(F)c(C#N)c1 [Compound I-0027] | < 100 nM | – | EC50 [1, 6]: < 1000 nM |
| COc1nc(N(C)CC(F)(F)F)cc2c1c(=O)n(-c1cnc3cc(F)ccn13)c(=O)n2-c1ccc(F)c(Cl)c1 [Compound I-1006] | < 100 nM | < 100 nM | – |
| COc1nc(N2CC[C@@H](NC(C)=O)C2)cc2c1c(=O)n(-c1cncc(Cl)c1)c(=O)n2-c1ccc(F)c(Cl)c1 [Compound I-0994] | < 100 nM | < 100 nM | – |
| COc1nc(N2CCC(F)(F)C2)cc2c1c(=O)n(-c1cncc(C#N)c1)c(=O)n2-c1ccc(F)c(F)c1 [Compound I-1057] | < 100 nM | < 100 nM | – |
| COC[C@H]1CCCN1c1cc2c(c(OC)n1)c(=O)n(-c1cnc3cc(F)ccn13)c(=O)n2-c1ccc(F)c(Cl)c1 [Compound I-1050] | < 100 nM | < 100 nM | – |
| COc1nc(N2CC[C@@H](OC)C2)cc2c1c(=O)n(-c1cnc3cc(F)ccn13)c(=O)n2Cc1cc(F)c(F)c(Cl)c1 [Compound I-0735] | < 100 nM | < 100 nM | – |
| COc1nc(N2CC[C@@H](OC)C2)cc2c1c(=O)n(-c1cnc3cc(F)ccn13)c(=O)n2-c1ccc(F)c(Cl)c1 [Compound I-0740] | < 100 nM | < 100 nM | – |
| COc1nc(N2CCC(N(C)C)C2)cc2c1c(=O)n(-c1cncc(Cl)c1)c(=O)n2-c1ccc(F)c(Cl)c1 (stereo not drawn) [Compound I-1022] | < 100 nM | < 100 nM | – |
| COc1nc(N2C[C@@H](F)[C@@H](F)C2)cc2c1c(=O)n(-c1cnc3cc(F)ccn13)c(=O)n2-c1ccc(F)c(F)c1 [Compound I-1020] | < 100 nM | < 100 nM | – |
| [2H]C([2H])([2H])O[C@@H]1CCN(c2cc3c(c(OC)n2)c(=O)n(-c2cncc(C(F)F)c2)c(=O)n3-c2ccc(F)c(Cl)c2)C1 [Compound I-0970] | < 100 nM | < 100 nM | – |
| COc1nc2c(=O)n(Cc3ncn(C)n3)c(=O)n(Cc3cc(Cl)ccc3Cl)c2cc1-c1cc(C#N)ccc1Cl [Compound I-0713] | < 100 nM | 100 to 1000 nM | – |
| COc1nc(N2CC(O)(C(F)(F)F)C2)cc2c1c(=O)n(-c1cnc3cc(F)ccn13)c(=O)n2-c1ccc(F)c(Cl)c1 [Compound I-0753] | 21 nM | – | EC50 [3, 8]: 35.7 nM |
| COc1nc(N2CC[C@@H](C#N)C2)cc2c1c(=O)n(-c1cncc(C(F)F)c1)c(=O)n2-c1ccc(F)c(Cl)c1 [Compound I-0945] | < 100 nM | < 100 nM | – |
| COc1nc(N2CC[C@@H](O)C2)cc2c1c(=O)n(-c1cncc(C#N)c1)c(=O)n2-c1ccc(F)c(F)c1 [Compound I-1027] | < 100 nM | < 100 nM | – |

| Compound | IC50 [2, 5] | EC50 [3, 7] | further results |
| --- | --- | --- | --- |
| COc1cc(N2[C@@H]3CC[C@H]2CNC3)cc2c1c(=O)n(-c1cnc3ccccn13)c(=O)n2Cc1cc(F)c(F)c(F)c1 [Compound I-0666] | – | – | EC50 ([3]; read-out: EC50 (50% SARS-CoV-2 infected cell death inhibitory concentration)): 100 to 1000 nM; IC50 ([2]; IC50 (50% SARS-CoV-2 3CL protease inhibitory concentration)): < 100 nM |
| COc1nc(N2CC[C@@H](C#N)C2)cc2c1c(=O)n(-c1cncc(OC(F)F)c1)c(=O)n2-c1ccc(F)c(Cl)c1 [Compound I-0951] | < 100 nM | < 100 nM | – |
| N#Cc1ccc(Cl)c(-c2cc3c(c4c2C(O)CO4)c(=O)n(-c2cncc(Cl)c2)c(=O)n3Cc2cc(F)c(F)c(F)c2)c1 (stereo not drawn) [Compound I-0859] | 1.9 nM | – | EC50 [3, 8]: 18.7 nM |
| CNC(=O)c1ccc(Cl)c(-c2cc3c(c4c2CCO4)c(=O)n(Cc2ncn(C)n2)c(=O)n3Cc2cc(F)c(F)c(Cl)c2)n1 [Compound I-0870] | < 100 nM | < 100 nM | – |
| COc1nc2c(=O)n(Cc3ncn(C)n3)c(=O)n(Cc3cc(Cl)c(F)cc3C)c2cc1-c1nc(C(F)F)ccc1Cl [Compound I-0884] | < 100 nM | < 100 nM | – |
| COc1cc(-c2ncc(F)cc2Cl)cc2c1c(=O)n(Cc1ncn(C)n1)c(=O)n2Cc1cc(F)c(F)c(F)c1 [Compound I-0827] | < 100 nM | 100 to 1000 nM | – |
| CCc1nc(N2CCC(F)(F)C2)cc2c1c(=O)n(-c1cncc(Cl)c1)c(=O)n2-c1ccc(F)c(F)c1 [Compound I-1023] | < 100 nM | < 100 nM | – |
| COc1nc(N2CC[C@@H](O)C2)cc2c1c(=O)n(-c1cncc(C#N)c1)c(=O)n2-c1ccc(F)c(Cl)c1 [Compound I-0957] | 3.2 nM | – | EC50 [3, 8]: 8.14 nM |
| COc1nc(N2CC[C@@H](O)C2)cc2c1c(=O)n(-c1cncc(OCF)c1)c(=O)n2-c1ccc(F)c(F)c1 [Compound I-1025] | < 100 nM | < 100 nM | – |
| [2H]C([2H])([2H])O[C@@H]1CCN(c2cc3c(c(OC)n2)c(=O)n(-c2cnc4cc(F)ccn24)c(=O)n3-c2ccc(F)c(Cl)c2)C1 [Compound I-0751] | < 100 nM | < 100 nM | – |
| O=c1c2c(=O)n(-c3cnc4cc(F)ccn34)c(=O)n(-c3ccc(F)c(Cl)c3)c2cc2n1CC[C@@H]1CCCCN21 [Compound I-1048] | 23 nM | – | EC50 [3, 8]: 436 nM |
| Cn1c(-c2cc(C#N)ccc2Cl)cc2c(c1=O)c(=O)n(-c1cnc3cc(F)ccn13)c(=O)n2Cc1cc(F)c(F)c(F)c1 [Compound I-0727] | 1.1 nM | – | EC50 [3, 8]: 102 nM |
| COc1nc(NC(C)C)cc2c1c(=O)n(-c1cnc3cc(F)ccn13)c(=O)n2-c1ccc(F)c(Cl)c1 [Compound I-0651] | 8.5 nM | – | EC50 [3, 8]: 13 nM |
| Cn1cnc(Cn2c(=O)c3c4ncccc4c(-c4cc(C#N)ccc4Cl)cc3n(Cc3cc(F)c(F)c(F)c3)c2=O)n1 [Compound I-0632] | 3.1 nM | – | EC50 [3, 8]: 50.1 nM |
| Cn1cnc(Cn2c(=O)c3c4c(c(-c5cc(C#N)ccc5Cl)cc3n(Cc3cc(F)c(F)c(F)c3)c2=O)[C@H](O)CO4)n1 [Compound I-0865] | < 100 nM | 100 to 1000 nM | – |
| COc1nc(N2CCC(F)(F)C2)cc2c1c(=O)n(-c1cncc(C#N)c1)c(=O)n2-c1ccc(F)c(Cl)c1 [Compound I-0977] | < 100 nM | < 100 nM | – |
| Cn1cnc(Cn2c(=O)c3c4nccnc4c(-c4c(F)cc(F)cc4F)cc3n(Cc3cc(F)c(F)c(Cl)c3)c2=O)n1 [Compound I-0571] | < 100 nM | < 100 nM | – |
| COc1ccc(Cl)c(-c2cc(OC)c3c(=O)n(Cc4ncn(C)n4)c(=O)n(Cc4cc(F)c(F)c(F)c4)c3c2)n1 [Compound I-0895] | < 100 nM | 100 to 1000 nM | – |
| COc1nc(N2C[C@@H]3C[C@H]2CO3)cc2c1c(=O)n(-c1cncc(C#N)c1)c(=O)n2-c1ccc(F)c(Cl)c1 [Compound I-0940] | 1.7 nM | – | EC50 [3, 8]: 5.66 nM |
| COc1nc(N2CCC(F)(F)C2)cc2c1c(=O)n(-c1cncc(C(F)F)c1)c(=O)n2-c1ccc(F)c(Cl)c1 [Compound I-1018] | < 100 nM | < 100 nM | – |
| COc1nc(N2C[C@H]3C[C@@H]2CO3)cc2c1c(=O)n(-c1cnc3cc(F)ccn13)c(=O)n2-c1ccc(F)c(Cl)c1 [Compound I-0989] | < 100 nM | < 100 nM | – |
| COc1nc(N2CC[C@@H](O)C2)cc2c1c(=O)n(-c1cncc(Cl)c1)c(=O)n2-c1ccc(F)c(Cl)c1 [Compound I-0944] | < 100 nM | < 100 nM | – |
| COc1nc2c(=O)n(Cc3ncn(C)n3)c(=O)n(Cc3cc(F)c(F)c(Cl)c3)c2cc1-c1nc(C(=O)NC(C)C)ccc1Cl [Compound I-0883] | 3.3 nM | – | EC50 [3, 8]: 30.2 nM |
| COc1nc(N2C[C@H](F)[C@@H](F)C2)cc2c1c(=O)n(-c1cnc3cc(F)ccn13)c(=O)n2-c1ccc(F)c(Cl)c1 [Compound I-0748] | < 100 nM | < 100 nM | – |
